Data taken from patent US7897781B2, “Cold menthol receptor-1 antagonists” (Janssen Pharmaceutica NV, priority 2006, dated 2011).
“And” between values parts separate entries of the source, which are not always exact repeats. Equal entries are not always repeated.

Tested on: Sprague-Dawley rats
Experiment: CFA-induced paw radiant heat hypersensitivity
Assay type: in vivo, rat
Conditions: 30 mg/kg p.o., time 1 h
Procedure: Intraplantar injection of Complete Freund's Adjuvant (CFA) in rodents results in a long-lasting inflammatory reaction, characterized by a pronounced hypersensitivity to both thermal and mechanical stimuli. This hypersensitivity peaks between 24-72 hours following injection and can last for several weeks. […] This paradigm also may be conducted with a multiple dosing or a prophylactic dosing regime designed to alter the course of hyperalgesia development. This test predicts the analgesic, anti-allodynic and antihyperalgesic effect of numerous effective clinical agents, including NSAIDS such as acetaminophen, aspirin and ibuprofen, and opioids such as morphine.
Each rat was placed in a test chamber on a warm glass surface and allowed to acclimate for approximately 10 minutes. A radiant thermal stimulus (beam of light) was then focused through the glass onto the plantar surface of each hind paw in turn. The thermal stimulus was automatically shut off by a photoelectric relay when the paw was moved or when the cut-off time was reached (20 seconds for radiant heat at ˜5 Amps). An initial (baseline) response latency to the thermal stimulus was recorded for each animal prior to the injection of CFA. Twenty-four hours following intraplantar CFA injection, the response latency of the animal to the thermal stimulus was then re-evaluated and compared to the animal's baseline response time. […] Immediately following the post-CFA latency assessment, test compound or vehicle (usually Solutol, hydroxypropyl methylcellulose, hydroxypropyl beta-cyclodextrin or PEG-400) was administered i.p. or p.o. to rats. […] The percent reversal (% R) of hypersenstivitiy was calculated according to the following formula: % Reversal=(Treatment Response−CFA Response)/(Baseline Response−CFA Response)×100.

Row | Compound | % Reversal [%]
1 | CC(C)OP(=O)(OC(C)C)C(Cc1cc(C(F)(F)F)ccc1F)c1sc2ccccc2c1Br (stereo not shown) [Cpd 335] | 0
2 | CC(C)OP(=O)(OC(C)C)C(Cc1ccc(Cl)c(F)c1)c1sc2ccccc2c1Br (stereo not shown) [Cpd 190] | 45
3 | CC(C)OP(=O)(OC(C)C)C(Cc1ccc(C(F)(F)F)cc1)c1sc2ccccc2c1Br (stereo not shown) [Cpd 336] | 64

Target: T1, canine TRPM8 (Canis lupus familiaris, UniProt Q1A7N1)
T1 construct: expressed in transfected cells
Experiment: In vitro canine TRPM8 functional assay (Ca2+-sensitive dye, icilin activation; Table 4 TRPM8 Screening)
Assay type: cell-based
Conditions: compound at 0.5 μM; HEK293 cells expressing canine TRPM8, icilin activation
Procedure: The functional activity of compounds of Formula (I) was determined by measuring changes in intracellular calcium concentration using a Ca^2+-sensitive fluorescent dye. The changes in fluorescent signal were monitored by a fluorescence plate reader, either a FLIPR™ (Molecular Devices) or FDSS (Hamamatsu).
HEK293 cells stably expressing canine TRPM8 were routinely grown as monolayers in Dulbecco's minimum essential medium supplemented with 10% FBS, 1 mM L-glutamine, 100 units/mL penicillin, 100 ug/mL streptomycin and 400 μg/mL G418. Cells were maintained in 5% CO2 at 37° C. At 24 hrs prior to assay, cells were seeded in clear-base poly-D-lysine coated 384-well plates (BD Biosciences, NJ, USA) at a density of 5,000 cells per well in culture medium and grown overnight in 5% CO2 at 37° C. On assay day, growth media was removed and cells were loaded with Calcium 3 Dye (Molecular Devices) for 35 min at 37° C., under 5% CO2 and then for 25 min at room temperature and atmosphere. Subsequently, cells were tested for agonist-induced increases in intracellular Ca^2+ levels using FLIPR™ or FDSS. Cells were challenged with a compound of Formula (I) (at varying concentrations) and intracellular Ca^2+ was measured for 5 min prior to the addition of icilin to all wells to achieve a final concentration which produces approximately an 80% maximal response.
Basal FI was subtracted prior to normalizing data to percent of maximal response. Curves were generated using the average of quadruplicate wells for each data point, were analyzed using nonlinear regression of either sigmoidal dose response or sigmoidal dose response (variable slope). Finally, the EC50 and IC50 values were calculated with the best-fit dose curve determined by GraphPad Prism.

T1 sequence (Q1A7N1 1-1104): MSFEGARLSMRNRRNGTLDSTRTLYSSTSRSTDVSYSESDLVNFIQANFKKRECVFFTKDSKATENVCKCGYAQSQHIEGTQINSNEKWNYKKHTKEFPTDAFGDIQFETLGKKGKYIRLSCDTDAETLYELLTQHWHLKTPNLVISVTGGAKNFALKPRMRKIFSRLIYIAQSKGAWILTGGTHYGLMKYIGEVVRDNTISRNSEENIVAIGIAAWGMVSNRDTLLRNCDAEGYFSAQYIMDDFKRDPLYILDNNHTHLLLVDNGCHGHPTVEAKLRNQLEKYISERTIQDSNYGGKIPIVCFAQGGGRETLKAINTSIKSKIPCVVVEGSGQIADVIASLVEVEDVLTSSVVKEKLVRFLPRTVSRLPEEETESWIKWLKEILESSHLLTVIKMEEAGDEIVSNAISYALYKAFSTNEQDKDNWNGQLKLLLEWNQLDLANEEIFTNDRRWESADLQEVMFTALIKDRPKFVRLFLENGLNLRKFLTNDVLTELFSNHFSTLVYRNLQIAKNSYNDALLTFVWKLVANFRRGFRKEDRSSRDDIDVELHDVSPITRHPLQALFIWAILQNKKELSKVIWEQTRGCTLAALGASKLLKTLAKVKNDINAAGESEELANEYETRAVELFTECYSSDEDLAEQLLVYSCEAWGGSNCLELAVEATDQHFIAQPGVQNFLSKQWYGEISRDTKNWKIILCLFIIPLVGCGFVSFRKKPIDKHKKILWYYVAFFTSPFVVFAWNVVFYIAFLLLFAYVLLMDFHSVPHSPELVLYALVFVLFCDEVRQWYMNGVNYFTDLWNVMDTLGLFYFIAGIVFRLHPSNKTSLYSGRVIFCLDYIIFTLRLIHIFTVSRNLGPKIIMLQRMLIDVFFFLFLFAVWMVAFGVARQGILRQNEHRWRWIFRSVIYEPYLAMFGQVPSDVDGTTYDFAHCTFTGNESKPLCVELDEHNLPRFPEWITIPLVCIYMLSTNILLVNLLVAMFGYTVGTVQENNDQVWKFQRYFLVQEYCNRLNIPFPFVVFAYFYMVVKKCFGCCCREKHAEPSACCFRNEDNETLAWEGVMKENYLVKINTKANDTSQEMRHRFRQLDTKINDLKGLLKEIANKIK

Row | Compound | % I (0.5 μM)
4 | CCOP(=O)(OCC)C(Cc1c(F)c(F)c(OC)c(F)c1F)c1sc2ccccc2c1Br (racemic) [Cpd 160] | 87%
5 | CC(C)OP(=O)(OC(C)C)C(Cc1cc(C(F)(F)F)ccc1Cl)c1sc2ccccc2c1Cl (stereo not shown) [Cpd 178] | 79%
6 | CC(C)OP(=O)(OC(C)C)C(Cc1cc(O)c(Cl)cc1F)c1sc2ccccc2c1Br (racemic) [Cpd 232] | 99%
7 | CCCS(=O)(=O)n1c(C(Cc2ccc(F)c(C(F)(F)F)c2)P(=O)(OC(C)C)OC(C)C)c(Br)c2ccccc21 (stereo not shown) [Cpd 332] | 72%
8 | CCOP(=O)(OCC)C(Cc1ccc(F)c(F)c1)c1sc2ccccc2c1-c1cccc(C(N)=O)c1 (racemic) [Cpd 218] | 79%
9 | CCOP(=O)(OCC)C(Cc1cc(O)cc(O)c1)c1sc2ccccc2c1Br (stereo not shown) [Cpd 322] | 45%
10 | COc1cc(CC(c2sc3ccccc3c2Br)P(=O)(OC(C)C)OC(C)C)ccc1F (stereo not shown) [Cpd 157] | 98%
11 | CCOP(=O)(OCC)C(Cc1ccc(OC)c(C(F)(F)F)c1)c1sc2ccccc2c1Br (racemic) [Cpd 152] | 92%
12 | CCOP(=O)(OCC)C(Cc1cc(O)c(Cl)cc1F)c1sc2ccccc2c1Br (racemic) [Cpd 231] | 98%
13 | CC(C)OP(=O)(OC(C)C)C(Cc1cc(C(F)(F)F)cc(C(F)(F)F)c1)c1sc2ccccc2c1Cl (racemic) [Cpd 171] | 95%
14 | CCOP(=O)(OCC)C(Cc1ccc(O)c(F)c1)c1sc2ccccc2c1Br (stereo not shown) [Cpd 226] | 34%
15 | CCOP(=O)(OCC)C(Cc1cccc(C(F)(F)F)c1)c1sc2ccccc2c1Br (stereo not shown) [Cpd 141] | 100%
16 | CCOP(=O)(OCC)C(Cc1ccc(OC(F)(F)F)cc1)c1sc2ccccc2c1Br (stereo not shown) [Cpd 155, [1-(3-Bromo-benzo[b]thiophen-2-yl)-2-(4-trifluoromethoxyphenyl)-ethyl]-phosphonic acid diethyl ester] | 101% and 102%
17 | CCOP(=O)(OCC)C(Cc1ccc(OC)c(C(F)(F)F)c1)c1sc2ccccc2c1Cl (racemic) [Cpd 292] | 99%
18 | COCCOCCOP(=O)(OCCOCCOC)C(Cc1ccc(F)c(F)c1)c1sc2ccccc2c1Br (stereo not shown) [Cpd 210] | 62%
19 | CCOP(=O)(OCC)C(Cc1ccc(O)c(C(F)(F)F)c1)c1sc2ccccc2c1Br (stereo not shown) [Cpd 233] | 70%
20 | CC(C)OP(=O)(OC(C)C)[C@H](Cc1ccc(F)c(C(F)(F)F)c1)c1sc2ccccc2c1Br [Cpd 243, (R)-[1-(3-Bromo-benzo[b]thiophen-2-yl)-2-(4-fluoro-3-trifluoromethylphenyl)-ethyl]-phosphonic acid diisopropyl ester] | 64%
21 | (R)-[1-(3-Bromo-benzo[b]thiophen-2-yl)-2-(4-trifluoromethoxy-phenyl)ethyl]-phosphonic acid diisopropyl ester [Cpd 237] | 96% and 70%
22 | CC(C)OP(=O)(OC(C)C)C(Cc1cccc(O)c1F)c1sc2ccccc2c1Br (racemic) [Cpd 230] | 97%

Same assay, conditions: compound at 0.5 μM; HEK293 cells expressing canine TRPM8, icilin activation; read-out: % I (0.5 μM)

Row | inhibition at 0.5 µM [%] | Compound
23 | 103 | CC(C)OP(=O)(OC(C)C)C(Cc1ccc(F)c(C(F)(F)F)c1)c1c(Br)c2ccccc2n1S(C)(=O)=O (stereo not shown) [Cpd 330, [1-(3-Bromo-1-methanesulfonyl-1H-indol-2-yl)-2-(4-fluoro-3-trifluoromethyl-phenyl)-ethyl]-phosphonic acid diisopropyl ester]

Same assay, conditions: compound at 1 μM; HEK293 cells expressing canine TRPM8, icilin activation

Row | Compound | % I (1 μM) [%]
24 | CC(C)OP(=O)(OC(C)C)C(Cc1ccccc1F)c1sc2ccccc2c1Br (stereo not shown) [Cpd 196] | 100
25 | CCOP(=O)(OCC)C(Cc1ccc(F)c(F)c1)c1c(C)c2ccccc2[s+]1[O-] (stereo not shown) [Cpd 118] | 23
26 | Cc1c(C(Cc2ccc(F)c(F)c2)P(=O)(OC(C)C)OC(C)C)oc2ccccc12 (stereo not shown) [Cpd 11] | 99
27 | CCOP(=O)(OCC)C(Cc1cc(F)cc(F)c1Cl)c1sc2ccccc2c1C (stereo not shown) [Cpd 28] | 100
28 | CC(C)OP(=O)(OC(C)C)C(Cc1cc(C(F)(F)F)cc(Cl)c1F)c1cc2ccccc2s1 (stereo not shown) [Cpd 126] | 100
29 | CCOP(=O)(OCC)C(Cc1ccc(F)c(F)c1)c1sc2c(C(F)(F)F)cccc2c1C (stereo not shown) [Cpd 116] | 64
30 | CCOP(=O)(CC(C)C)C(Cc1ccc(F)c(F)c1)c1sc2ccccc2c1C (stereo not shown) [Cpd 6, [2-(3,4-Difluoro-phenyl)-1-(3-methyl-benzo[b]thiophene-2-yl)-ethyl]-isobutyl-phosphonic acid ethyl ester] | 100
31 | CCOP(=O)(OCC)C(Cc1ccccc1Cl)c1sc2ccccc2c1C (stereo not shown) [Cpd 48] | 100
32 | CC(C)OP(=O)(OC(C)C)C(Cc1ccc(F)cc1)c1sc2cc(Br)ccc2c1Br (stereo not shown) [Cpd 200] | 81
33 | CCOP(=O)(OCC)C(Cc1ccccc1Cl)c1cc2ccccc2s1 (stereo not shown) [Cpd 85] | 90
34 | CCOP(=O)(OCC)C(Cc1ccc2ccccc2c1)c1cc2ccccc2s1 (stereo not shown) [Cpd 83] | 84
35 | Cc1c(C(Cc2ccc(F)c(F)c2)P(=O)(OCC(C)(C)C)OCC(C)(C)C)sc2ccccc12 (stereo not shown) [Cpd 53, [2-(3,4-Difluoro-phenyl)-1-(3-methyl-benzo[b]thiophen-2-yl)ethyl]-phosphonic acid bis-(2,2-dimethyl-propyl) ester] | 97
36 | CCOP(=O)(CC(C)C)C(Cc1ccc(F)c(F)c1)c1sc2ccccc2c1C (stereo not shown) [Cpd 36, [2-(3,4-Difluoro-phenyl)-1-(3-methyl-benzo[b]thiophene-2-yl)-ethyl]-isobutyl-phosphonic acid ethyl ester] | 100
37 | CCOP(=O)(OCC)C(Cc1ccccc1F)c1cc2ccccc2s1 (stereo not shown) [Cpd 80] | 93
38 | CCOP(=O)(OCC)C(Cc1cccc(C(F)(F)F)c1F)c1sc2ccccc2c1C (stereo not shown) [Cpd 37] | 100
39 | CCOP(=O)(Cc1cc2ccccc2s1)OCc1ccccc1 (stereo not shown) [Cpd 111] | 14
40 | CCOP(=O)(OCC)C(Cc1cccc(F)c1F)c1sc2ccccc2c1C (stereo not shown) [Cpd 10] | 100
41 | CCOP(=O)(OCC)C(Cc1cccc(OC(F)(F)F)c1)c1sc2ccccc2c1C (stereo not shown) [Cpd 57] | 100
42 | CCOP(=O)(OCC)C(Cc1cc(C(F)(F)F)cc(C(F)(F)F)c1)c1cc2ccccc2s1 (stereo not shown) [Cpd 96] | 92
43 | CCOP(=O)(OCC)C(Cc1ccccc1-c1ccccc1)c1sc2ccccc2c1C (stereo not shown) [Cpd 115] | 69
44 | CCOP(=O)(OCC)C(Cc1ccccc1C)c1cc2ccccc2s1 (stereo not shown) [Cpd 89] | 91
45 | CCOP(=O)(OCC)C(Cc1cc(C(F)(F)F)ccc1Cl)c1sc2ccccc2c1C (stereo not shown) [Cpd 99] | 100
46 | [2-(3,4-Difluoro-phenyl)-1-(3-methyl-benzo[b]thiophene-2-yl)-ethyl]-[3-(4-methoxy-phenyl)-propyl]-phosphonic acid ethyl ester [Cpd 135] | 90
47 | CC(C)OP(=O)(OC(C)C)C(Cc1ccccc1F)c1sc2cc(Br)ccc2c1Br (stereo not shown) [Cpd 199] | 81
48 | CCOP(=O)(OCC)C(Cc1ccc(F)c(F)c1)c1cc2cccnc2s1 (stereo not shown) [Cpd 131] | 28
49 | CC(C)OP(=O)(OC(C)C)C(Cc1ccc(F)c(F)c1)c1sc2ccccc2c1C(C)C (stereo not shown) [Cpd 19] | 100
50 | CCOP(=O)(OCC)C(Cc1cccc(Cl)c1F)c1sc2ccccc2c1C (stereo not shown) [Cpd 23] | 100
51 | CCOP(=O)(OCC)C(Cc1ccccc1C)c1sc2ccccc2c1C (stereo not shown) [Cpd 26] | 100

Same assay, conditions: compound at 5 μM; HEK293 cells expressing canine TRPM8, icilin activation

Row | Compound | % I (5 μM) [%]
52 | CCOP(=O)(OCC)C(Cc1ccccc1Cl)c1cc2ccccc2s1 (stereo not shown) [Cpd 85] | 100
53 | CCOP(=O)(Cc1cc2ccccc2s1)OCc1ccc(F)cc1 (stereo not shown) [Cpd 107] | 99
54 | CCOP(=O)(OCC)C(Cc1ccccc1F)c1cc2ccccc2s1 (stereo not shown) [Cpd 80] | 100
55 | CCOP(=O)(OCC)C(Cc1ccccc1C)c1cc2ccccc2s1 (stereo not shown) [Cpd 89] | 100
